Laboratory results from US20160000750A1, “COMBINATION OF EGCG OR METHYLATED EGCG AND A PDE INHIBITOR” (KYUSHU UNIVERSITY, NATIONAL UNIVERSITY CORPORATION, priority 2010, published 2016).

Columns and labels:
TLR 4 = assay: TLR4 expression in RAW 264.7 by Western blotting; type: cell-based, mouse; conditions: vardenafil 5 μM, EGCG 10 μM added after 3 hours, 24 hours, untreated = 100
Description: A mouse macrophage cell line, RAW 264.7, was seeded in a 5-mL dish at 1×10^5 cells/mL and was pre-cultured in a DMEM medium supplemented with 1% FCS for 24 hours. Subsequently, vardenafil was added thereto at a concentration of 5 μM. After 3 hours, EGCG was added thereto at a concentration of 0 μM or 10 μM. After 24 hours, the cells were collected, and the expressions of Toll-like receptor (TLR) 2 and TLR 4 were measured by Western blotting.

[1] = tested on: human multiple myeloma cell line, U266; assay: Apoptosis induction by Annexin V PI double staining, U266; type: cell-based; conditions: vardenafil 5 μM, EGCG 5 μM, 96 hours
Description: A propidium iodide (PI) staining solution was prepared by suspending PI (Sigma Corporation) in PBS at a concentration of 50 μg/mL and was used in investigation of the anti-cancer activity of a combination of EGCG and vardenafil by Annexin V PI double staining. The PBS used was prepared by dissolving 8.0 g of NaCl, 0.2 g of KCl, 1.15 g of Na2HPO4, and 0.2 g of KH2PO4 in 1 L of ultrapure water, followed by autoclave sterilization. The Annexin V Binding Buffer used was prepared with 10 mM HEPES, 140 mM NaCl, and 2.5 mM CaCl2 (Wako Pure Chemical Industries, Ltd.) to be pH 7.4, followed by filter sterilization.
Cell lines, U266 and HL60, adjusted to be 5×10^4 cells/mL (U266) and 1×10^4 cells/mL (HL60), respectively, in an RPMI 1640 medium supplemented with 1% FCS were seeded in a 96-well plate. […]
The plate was returned to the incubator immediately after the addition of EGCG, followed by culturing for 96 hours. […] The supernatant was removed, and the cells were suspended in an Annexin V Binding uffer, and the number of the cells was counted with a hemocytometer. […] Subsequently, 400 μL of an Annexin V Binding Buffer was added thereto from above, and the cells were counted with a flow cytometer, FACS Caliber (Becton, Dickinson and Company). After compensation, the Annexin V Alexa Fluor 488 Conjugate was measured at FL 1, and the cells deemed to be positive were determined as apoptotic cells. […]

(−)-epigallocatechin-3-O-gallate [EGCG]
TLR4 expression level(%) (TLR 4): 57% | apoptosis-inducing activity (apoptotic cell ratio) ([1]; Annexin V PI double staining): apoptosis was induced | apoptosis-inducing activity under treatment with anti-67LR antibody ([1]; anti-67LR antibody MLuc5 20 μg/mL): completely cancelled
